target: aspartyl proteases, in particular, beta-secretase; experiment: Ki of the compounds listed in Tables 1 and 2 (no method described); type: biochemical; settings: Table 1, compounds of formula Ia, W is -(CH2)n-

SMILES | Ki [µM]
Nc1ccc(S(=O)(=O)NCCC[C@H](NC(=O)OCC2c3ccccc3-c3ccccc32)C(=O)O)cc1 [Compound No. 69, Nδ-(4-aminobenzenesulfonyl)-Nα-(9-fluorenylmethoxycarbonyl)-L-ornithine] | 23.8
O=C(O)[C@H](CCCN(Cc1ccc(F)cc1)S(=O)(=O)c1ccc(Br)cc1)NS(=O)(=O)c1ccc(Br)cc1 [Compound No. 59, Nα,Nδ-di-(4-bromobenzenesulfonyl)-Nδ-(4-fluorobenzyl)-L-ornithine] | > 34.9
Cc1ccc(S(=O)(=O)N(CC(C)C)[C@@H](CCCCNC(=O)C2c3ccccc3Oc3ccccc32)C(=O)O)cc1 [compound 85] | 0.0145
COc1ccc(S(=O)(=O)N(CC(C)C)[C@@H](CCCCNC(=O)OCC2c3ccccc3-c3ccccc32)C(=O)O)cc1 [Compound No. 7] | 0.0106
CC(C)CN(C(CCCCNC(=O)C=Cc1ccccc1[N+](=O)[O-])C(=O)O)S(=O)(=O)c1ccc([N+](=O)[O-])cc1 [Compound No. 109, Nα-isobutyl-Nα-(4-nitrobeiizenesulfonyl)-Nε-(2-nitrocinnamoyl)-L-lysine] | > 0.3
O=C(N[C@@H](CNS(=O)(=O)c1ccc(Br)cc1)C(=O)O)OCC1c2ccccc2-c2ccccc21 [Compound No. 18, (S)-2-(9-fluorenylmethoxycarbonylamino)-3-(4-bromobenzenesulfonylamino)-propanoic Acid] | 75
O=C(N[C@@H](CCCCNS(=O)(=O)c1ccc(I)cc1)C(=O)O)OCC1c2ccccc2-c2ccccc21 [Compound No. 64, Nε-(4-iodobenzenesulfonyl)-Nα-(9-fluorenylmethoxycarbonyl)-L-lysine] | 19.2
O=C(O)[C@H](CCCCNS(=O)(=O)c1ccc(Br)cc1)NC(=O)C(O)(c1ccccc1)c1ccccc1 [Compound No. 37, Nα-(diphenylhydroxyacetyl)-Nε-(4-bromobenzenesulfonyl)-L-lysine] | 54
CC1(C)[C@@H]2CC[C@@]1(CS(=O)(=O)NCCCC[C@H](NC(=O)OCC1c3ccccc3-c3ccccc31)C(=O)O)C(=O)C2 [Compound No. 35, Nε-(1S)-(10-camphorsulfonyl)-Nα-(9-fluorenylmethoxycarbonyl)-L-lysine] | 33
O=C(NCCCC[C@H](NC(=O)OCC1c2ccccc2-c2ccccc21)C(=O)O)OCC1c2ccccc2-c2ccccc21 [Compound No. 71, Nα,Nε-di-(9-fluorenylmethoxycarbonyl)-L-lysine] | 44.8
O=C(NCCCC[C@H](NS(=O)(=O)c1ccccc1[N+](=O)[O-])C(=O)O)OCC1c2ccccc2-c2ccccc21 [Compound No. 70, Nα-(2-nitrobenzenesulfonyl)-Nε-(9-fluorenylmethoxycarbonyl)-L-lysine] | > 12.5
COc1cccc(CCC(=O)NCCCC[C@@H](C(=O)O)N(CC(C)C)S(=O)(=O)c2ccc(N)cc2)c1 [Compound No. 156, Nα-isobutyl-Nα-(4-aminobenzenesulfonyl)-Nε-(3-methoxydihydrocinnamoyl)-L-lysine] | 0.0167
CC(C)CN([C@@H](CCCCNC(=O)C=Cc1ccc([N+](=O)[O-])cc1)C(=O)O)S(=O)(=O)c1ccc([N+](=O)[O-])cc1 [Compound No. 111, Nα-isobutyl-Nα-(4-nitrobenzenesulfonyl)-Nε-(4-nitrocinnamoyl)-L-lysine] | 0.0344
CC(C)CN([C@@H](CCCCNC(=O)OCc1ccccc1)C(=O)OCc1ccccc1)S(=O)(=O)c1ccc([N+](=O)[O-])cc1 [Compound No. 78, Nα-isobutyl-Nα-(4-nitrobenzenesulfonyl)-Nε-benzyloxycarbonyl-L-lysine Benzyl Ester] | > 1.25
O=C(Cc1c[nH]c2ccccc12)N[C@@H](CCCCNS(=O)(=O)c1ccc(Br)cc1)C(=O)O [Compound No. 29, Nα-(3-indoleacetyl)-Nε-(4-bromobenzenesulfonyl)-L-lysine] | 10.5
Nc1ccccc1S(=O)(=O)N[C@@H](CCCCNC(=O)OCC1c2ccccc2-c2ccccc21)C(=O)O [Compound No. 105, Nα-(2-aminobenzenesulfonyl)-Nε-(9-fluorenylmethoxycarbonyl)-L-lysine] | 16
O=C(N[C@@H](CCNS(=O)(=O)c1ccc(Br)cc1)C(=O)O)OCC1c2ccccc2-c2ccccc21 [Compound No. 14, (S)-2-(9-fluorenylmethoxycarbonylamino)-4-(4-bromobenzenesulfonylamino)-butanoic Acid] | 49
COc1ccc(S(=O)(=O)N[C@@H](CCCCNC(=O)OCC2c3ccccc3-c3ccccc32)C(=O)O)cc1 [Compound No. 104, Nα-(4-methoxylbenzenesulfonyl)-Nε-(9-fluorenylmethoxycarbonyl)-L-lysine] | 3.16
O=C(N[C@@H](CCCCNS(=O)(=O)c1ccc(Br)cc1)C(=O)O)OCC1c2ccccc2-c2ccccc21 [Compound No. 16, Nε-(4-bromobenzenesulfonyl)-Nα-(9-fluorenylmethoxycarbonyl)-L-lysine] | 13
Cc1ccc(S(=O)(=O)N(CC(C)C)[C@@H](CCCCNC(=O)CCc2ccccc2)C(=O)O)cc1 [compound 91] | 0.008

SMILES | Ki [µM]
CC(C)CN([C@@H](CCCCNC(=O)CCc1cccc(N)c1)C(=O)O)S(=O)(=O)c1ccc(N)cc1 [Compound No. 118, Nα-isobutyl-Nα-(4-aminobenzenesulfonyl)-Nε-(3-aminodihydrocinnamoyl)-L-lysine] | 0.0205
O=C(NCCCC[C@H](NS(=O)(=O)c1ccc([N+](=O)[O-])cc1)C(=O)O)OCC1c2ccccc2-c2ccccc21 [Compound No. 103, Nα-(4-nitrobenzenesulfonyl)-Nε-(9-fluorenylmethoxycarbonyl)-L-lysine] | 3.3
Cc1ccc(S(=O)(=O)N(CC(C)C)C(CCCCNC(=O)OCC2c3ccccc3-c3ccccc32)C(=O)O)cc1 (racemic) [Compound No. 2, Nα-isobutyl-Nα-(4-methylbenzenesulfonyl)-Nε-(9-fluorenylmethoxycarbonyl)-DL-lysine] | 0.005
O=C(N[C@@H](CCCCNS(=O)(=O)c1cccc2cccnc12)C(=O)O)OCC1c2ccccc2-c2ccccc21 [Compound No. 28, Nε-(8-quinolinesulfonyl)-Nα-(9-fluorenylmethoxycarbonyl)-L-lysine] | 15
Cc1ccc(S(=O)(=O)N(CC(C)C)C(CCCCNC(=O)C=Cc2ccccc2)C(=O)O)cc1 (stereo not drawn) [compound 90] | 0.747
O=C(N[C@@H](CCCCNS(=O)(=O)c1ccc2ccccc2c1)C(=O)O)OCC1c2ccccc2-c2ccccc21 [Compound No. 32, Nε-(2-naphthalenesulfonyl)-Nα-(9-fluorenylmethoxycarbonyl)-L-lysine] | 10
CC(C)CN([C@@H](CCCCNS(=O)(=O)Cc1ccccc1)C(=O)O)S(=O)(=O)c1ccc([N+](=O)[O-])cc1 [Compound No. 115, Nα-isobutyl-Nα-(4-nitrobenzenesulfonyl)-Nε-benzylsulfonyl-L-lysine] | > 0.3
O=C(N[C@@H](CCCCNS(=O)(=O)c1cc(Cl)ccc1Cl)C(=O)O)OCC1c2ccccc2-c2ccccc21 [Compound No. 54, Nε-(2,5-dichlorobenzenesulfonyl)-Nα-(9-fluorenylmethoxycarbonyl)-L-lysine] | > 6.25
Nc1ccc(S(=O)(=O)N[C@@H](CCCCNC(=O)OCC2c3ccccc3-c3ccccc32)C(=O)O)cc1 [Compound No. 106, Nα-(4-aminobenzenesulfonyl)-Nε-(9-fluorenylmethoxycarbonyl)-L-lysine] | 4.49
CC(C)CN(CCCC[C@H](NC(=O)OCC1c2ccccc2-c2ccccc21)C(=O)O)S(=O)(=O)c1ccc(Br)cc1 [Compound No. 21, Nα-(9-fluorenylmethoxycarbonyl)-Nε-isobutyl-Nε-(4-bromobenzenesulfonyl)-L-lysine] | 2
CC(C)CN(C(CCCCNC(=O)OCC1c2ccccc2-c2ccccc21)C(=O)O)S(=O)(=O)c1ccc(Cl)cc1 (racemic) [Compound No. 1, Nα-isobutyl-Nα-(4-chlorobenzenesulfonyl)-Nε-(9-fluorenylmethoxycarbonyl)-DL-lysine] | 0.0205
O=C(NCCCC[C@H](NS(=O)(=O)c1cccc2ccccc12)C(=O)O)OCC1c2ccccc2-c2ccccc21 [Compound No. 102, Nα-(1-naphthalenesulfonyl)-Nε-(9-fluorenylmethoxycarbonyl)-L-lysine] | 2.32
Cc1ccc(S(=O)(=O)N(CC(C)C)[C@@H](CCCCNC(=O)CCc2ccc(O)cc2)C(=O)O)cc1 [Compound No. 126, Nα-isobutyl-Nα-(4-methylbenzenesulfonyl)-Nε-(4-hydroxydihydrocinnamoyl)-L-lysine] | > 0.3
Cc1ccc(S(=O)(=O)N(CC(C)C)[C@@H](CCCCNC(=O)OCc2ccccc2)C(=O)OCc2ccccc2)cc1 [Compound No. 75, Nα-isobutyl-Nα-(4-methylbenzenesulfonyl)-Nε-benzyloxycarbonyl-L-lysine Benzyl Ester] | > 1.25
Cc1ccc(S(=O)(=O)N(CC(C)C)[C@@H](CO)CCCCNC(=O)OCC2c3ccccc3-c3ccccc32)cc1 [Compound No. 124, (2R)-N-isobutyl-N-(4-methylbenzenesulfonylamino)-6-(9-fluorenylmethoxycarboxylamino)-1-hexanol] | 0.208
O=C(N[C@@H](CCCCNS(=O)(=O)c1ccc(Br)cc1)C(=O)O)C(c1ccccc1)c1ccccc1 [Compound No. 36, Nα-(diphenylacetyl)-Nε-(4-bromobenzenesulfonyl)-L-lysine] | 24
CC(C)CN(CCC[C@H](NC(=O)OCC1c2ccccc2-c2ccccc21)C(=O)O)S(=O)(=O)c1ccc(Br)cc1 [Compound No. 41, Nα-(9-fluorenylmethoxycarbonyl)-Nδ-isobutyl-Nδ-(4-bromobenzenesulfonyl)-L-ornithine] | > 50
CC(C)CN([C@@H](CCCCNC(=O)/C=C/c1cccnc1)C(=O)O)S(=O)(=O)c1ccc([N+](=O)[O-])cc1 [Compound No. 164, Nα-isobutyl-Nα-(4-nitrobenzenesulfonyl)-Nε-(trans-3-(3-pyridyl)acryloyl)-L-lysine] | > 0.3
CC(C)CN([C@@H](CCCCNC(=O)CCc1c[nH]c2ccccc12)C(=O)O)S(=O)(=O)c1ccc(N)cc1 [Compound No. 98, Nα-isobutyl-Nα-(4-aminobenzenesulfonyl)-Nε-(3-indolepropionyl)-L-lysine] | 0.0101
